Molecules are shown by their SMILES.

The values below come from patent publication US6989384B2, “Antipicornaviral compounds and compositions, their pharmaceutical uses, and materials for their synthesis” (Agouron Pharmaceuticals, Inc., priority 2000, dated 2006).

The assay concerns the target T1, rhinovirus 3C protease from HRV serotype-14 (Human rhinovirus 14, UniProt P03303).
T1 construct: Recombinant rhinovirus 3C proteases; made in house
As to the kind of experiment: Inhibition of rhinovirus 3C protease activity (FRET assay), HRV-14. The class given is biochemical. The conditions noted are these: HRV-14 3C protease, progress curves, enzyme start; for kinact/KI: read-out: Protease Inhibition kobs/I. The procedure:
Stock solutions (50 mM, in DMSO) of various compounds were prepared; dilutions were in the same solvent. Recombinant rhinovirus 3C proteases (see Birch et al., “Purification of recombinant human rhinovirus 14 3C protease expressed in Escherichia coli,” Protein Expr. Pur. 1995, 6(5), 609–618) from serotypes 14, 16, and 2 were prepared by the following standard chromatographic procedures: (1) ion exchange using Q Sepharose Fast Flow from Pharmacia; (2) affinity chromatography using Affi-Gel Blue from Biorad; and (3) sizing using Sephadex G-100 from Pharmacia. Each assay sample contained 2% DMSO, 50 mM tris pH 7.6, 1 mM EDTA, a test compound at the indicated concentration, approximately 1 μM substrate, and 50–100 nM protease. The kobs/I values were obtained from reactions initiated by addition of enzyme rather than substrate. RVP activity was measured in the fluorescence resonance energy transfer assay. The substrate was (N-terminal) DABCYL-(Gly-Arg-Ala-Val-Phe-Gln-Gly-Pro-Val-Gly)-EDANS. In the uncleaved peptide, the EDANS fluorescence was quenched by the proximal DABCYL group. When the peptide was cleaved, the quenching was relieved, and activity was measured as an increase in fluorescence signal. In the Table, unless otherwise indicated, all data are for rhinovirus 3C protease from HRV serotype-14 (produced from the infectious cDNA clone constructed by Dr. Robert Rueckert, Institute for Molecular Virology, University of Wisconsin, Madison, Wis.). The data in the column designated kobs/[I] were measured from progress curves in enzyme start experiments.

T1 sequence (P03303 1538-1719): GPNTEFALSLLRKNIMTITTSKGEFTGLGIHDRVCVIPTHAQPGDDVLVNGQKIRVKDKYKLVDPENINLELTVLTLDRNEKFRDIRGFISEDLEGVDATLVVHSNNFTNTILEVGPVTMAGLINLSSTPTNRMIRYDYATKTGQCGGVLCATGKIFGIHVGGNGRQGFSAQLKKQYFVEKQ

Regarding `CCOC(=O)/C=C/[C@H](C[C@@H]1CCNC1=O)NC(=O)Cc1cccc(Cl)c1` [Compound 63, 4S-[2-(3-chloro-phenyl)-acetylamino]-5-(2-oxo-pyrrolidin-3S-yl)-pent-2-enoic acid ethyl ester], the kinact/KI was determined as 7 M⁻¹ s⁻¹. Regarding `CCOC(=O)/C=C/[C@H](C[C@@H]1CCNC1=O)NC(=O)c1cc2cc(Cl)ccc2[nH]1` [Compound 40, 4S-[(5-Chloro-1H-indole-2-carbonyl)-amino]-5-(2-oxo-pyrrolidin-3S-yl)-pent-2-enoic acid ethyl ester], the kinact/KI worked out at 1270 M⁻¹ s⁻¹.

For the compound `CCOC(=O)/C=C/[C@H](C[C@@H]1CCNC1=O)NC(=O)c1cc2ccccc2[nH]1` [Compound 47, 4S-[(1H-Indole-2-carbonyl)-amino]-5-(2-oxo-pyrrolidin-3S-yl)-pent-2-enoic acid ethyl ester], the kinact/KI was found to be 283 M⁻¹ s⁻¹. On the same count and under the same terms, under `CCOC(=O)/C=C/[C@H](C[C@@H]1CCNC1=O)NC(=O)Nc1cc(C)cc(C)c1` [Compound 58, 4S-[3-(3,5-dimethyl-phenyl)-ureido]-5-(2-oxo-pyrrolidin-3S-yl)-pent-2-enoic acid ethyl ester] stands 185 M⁻¹ s⁻¹.

On to `CCOC(=O)/C=C/[C@H](C[C@@H]1CCNC1=O)NC(=O)c1cc2cc(F)ccc2[nH]1` [Compound 39, 4S-[(5-Fluoro-1H-indole-2-carbonyl)-amino]-5-(2-oxo-pyrrolidin-3S-yl)-pent-2-enoic acid ethyl ester], for which the kinact/KI was 615 M⁻¹ s⁻¹. As to `CCOC(=O)/C=C/[C@H](C[C@@H]1CCNC1=O)NC(=O)/C=C/C(=O)Nc1c(C)cc(C)cc1C` [Compound 50, 5-(2-Oxo-pyrrolidin-3S-yl)-4S-[3-(2,4,6-trimethylphenylcarbamoyl)-acryloylamino]-pent-2-enoic acid ethyl ester], the kinact/KI came out at 225 M⁻¹ s⁻¹.

Regarding `CCOC(=O)/C=C/[C@H](C[C@@H]1CCNC1=O)NC(=O)c1cc2ccccc2cc1NC(C)=O` [Compound 22, 4S-[(3-acetylamino-naphthalene-2-carbonyl)-amino]-5-(2-oxo-pyrrolidin-3S-yl)-pent-2-enoic acid ethyl ester], the “Protease Inhibition kobs/I” value is 673 M⁻¹ s⁻¹ and the kinact/KI was determined as 581 M⁻¹ s⁻¹. As to `CCOC(=O)/C=C/[C@H](C[C@@H]1CCNC1=O)NC(=O)C1CSC(c2ccccc2)N1C(C)=O` (stereo partly drawn) [Compound 13, 4S-[(3-acetyl-2-phenyl-thiazolidine-4-carbonyl)-amino]-5-(2-oxo-pyrrolidin-3S-yl)-pent-2-enoic acid ethyl ester], the kinact/KI turned out to be 169 M⁻¹ s⁻¹. On the same count and under the same terms, under `CCOC(=O)/C=C/[C@H](C[C@@H]1CCNC1=O)NC(=O)c1cc2ccccc2cc1N` [Compound 69, 4S-[(3-amino-naphthalene-2-carbonyl)-amino]-5-(2-oxo-pyrrolidin-3S-yl)-pent-2-enoic acid ethyl ester] stands 142 M⁻¹ s⁻¹. The same measure, in the same setting: under `CCOC(=O)/C=C/[C@H](C[C@@H]1CCNC1=O)NC(=O)COc1cccc(OC)c1` [Compound 60, 4S-[2-(3-methoxy-phenoxy)-acetylamino]-5-(2-oxo-pyrrolidin-3S-yl)-pent-2-enoic acid ethyl ester] stands 77 M⁻¹ s⁻¹; under `CCOC(=O)/C=C/[C@H](C[C@@H]1CCNC1=O)NC(=O)/C=C/c1ccc(OC)c(OC)c1` [Compound 5, 4S-[3-(3,4-dimethoxy-phenyl)-acryloylamino]-5-(2-oxo-pyrrolidin-3S-yl)-pent-2-enoic acid ethyl ester], 173 M⁻¹ s⁻¹. As for `CCOC(=O)/C=C/[C@H](C[C@@H]1CCNC1=O)NC(=O)c1ccc2cc(OC)c(OC)cc2c1` [Compound 18, 4S-[(6,7-dimethoxy-naphthalene-2-carbonyl)-amino]-5-(2-oxo-pyrrolidin-3S-yl)-pent-2-enoic acid ethyl ester], the kinact/KI stood at 262 M⁻¹ s⁻¹. For the compound `CCOC(=O)/C=C/[C@H](C[C@@H]1CCNC1=O)NC(=O)c1ccc(C(=O)OC)cc1` [Compound 4, N-[3-ethoxycarbonyl-1S-(2-oxo-pyrrolidin-3R-ylmethyl)-ally]-terephthalamic acid methyl ester], the kinact/KI came to 258 M⁻¹ s⁻¹. On the same count and under the same terms, to `CCOC(=O)/C=C/[C@H](C[C@@H]1CCNC1=O)NC(=O)/C=C/c1cc(Br)ccc1Br` [Compound 64, 4S-[3-(2,5-dibromo-phenyl)-acryloylamino]-5-(2-oxo-pyrrolidin-3S-yl)-pent-2-enoic acid ethyl ester] belongs 6850 M⁻¹ s⁻¹. For the compound `CCOC(=O)/C=C/[C@H](C[C@@H]1CCNC1=O)NC(=O)Nc1ccccc1Oc1ccccc1` [Compound 55, 5-(2-oxo-pyrrolidin-3S-yl)-4S-[3-(2-phenoxy-phenyl)-ureido]-pent-2-enoic acid ethyl ester], the kinact/KI worked out at 200 M⁻¹ s⁻¹.

In the case of `CCOC(=O)/C=C/[C@H](C[C@@H]1CCNC1=O)NC(=O)c1cc2cc(OC)c(OCc3ccccc3)cc2[nH]1` [Compound 46, 4S-[(6-Benzyloxy-5-methoxy-1H-indole-2-carbonyl)-amino]-5-(2-oxo-pyrrolidin-3S-yl)-pent-2-enoic acid ethyl ester], the kinact/KI amounted to 1830 M⁻¹ s⁻¹. With `CCOC(=O)/C=C/[C@H](C[C@@H]1CCNC1=O)NC(=O)/C=C/c1ccc(OC)cc1` [Compound 16, 4S-[3-(methoxy-phenyl)-acryloylamino]-5-(2-oxo-pyrrolidin-3S-yl)-pent-2-enoic acid ethyl ester], the kinact/KI was found to be 664 M⁻¹ s⁻¹.

As to `CCOC(=O)/C=C/[C@H](C[C@@H]1CCNC1=O)NC(=O)/C=C/c1ccc(Cl)cc1` [Compound 11, 4S-[3-(4-chloro-phenyl)-acryloylamino]-5-(2-oxo-pyrrolidin-3S-yl)-pent-2-enoic acid ethyl ester], the kinact/KI was 750 M⁻¹ s⁻¹. As to `CCOC(=O)/C=C/[C@H](C[C@@H]1CCNC1=O)NC(=O)c1cc2cc(Br)ccc2o1` [Compound 14, 4S-[(5-bromo-benzofuran-2-carbonyl)-amino]-5-(2-oxo-pyrrolidin-3S-yl)-pent-2-enoic acid ethyl ester], the kinact/KI was 219 M⁻¹ s⁻¹. In the case of `CCOC(=O)/C=C/[C@H](C[C@@H]1CCNC1=O)NC(=O)c1nc2ccccc2nc1O` [Compound 7, 4S-[(3-hydroxyquinoxaline-2-carbonyl)-amino]-5-(2-oxopyrrolidin-3S-yl)-pent-2-enoic acid ethyl ester], the kinact/KI came out at 36 M⁻¹ s⁻¹. For `CCOC(=O)/C=C/[C@H](C[C@H]1CCNC1=O)NC(=O)c1ccc2ccccc2c1` [Compound 2, 4S-[(naphthalene-2-carbonyl)-amino]-5-(2-oxo-pyrrolidin-3-R-yl)-pent-2-enoic acid ethyl ester], the kinact/KI was 400 M⁻¹ s⁻¹.

For the compound `CCOC(=O)/C=C/[C@H](C[C@@H]1CCNC1=O)NC(=O)c1cncc(Br)c1` [Compound 6, 4S-[(5-bromo-pyridine-3-carbonyl)-amino]-5-(2-oxo-pyrrolidin-3S-yl)-pent-2-enoic acid ethyl ester], the kinact/KI is 79 M⁻¹ s⁻¹. `CCOC(=O)/C=C/[C@H](C[C@@H]1CCNC1=O)NC(=O)/C=C/c1cccc(O)c1` [Compound 17, 4S-[3-(3-hydroxy-phenyl)-acryloylamino]-5-(2-oxo-pyrrolidin-3S-yl)-pent-2-enoic acid ethyl ester]: the kinact/KI was 315 M⁻¹ s⁻¹. In the case of `CCOC(=O)/C=C/[C@H](C[C@@H]1CCNC1=O)NC(=O)c1nc2ccccc2[nH]1` [Compound 10, 4-[(1H-benzoimidazole-2-carbonyl)-amino]-5-(2-oxo-pyrrolidin-3S-yl)-pent-2-enoic acid ethyl ester], the kinact/KI came out at 55 M⁻¹ s⁻¹. Turning to `CCOC(=O)/C=C/[C@H](C[C@@H]1CCNC1=O)NC(=O)c1ccc2cc(O)ccc2c1` [Compound 65, 4S-[(6-hydroxy-naphthalene-2-carbonyl)-amino]-5-(2-oxo-pyrrolidin-3S-yl)-pent-2-enoic acid ethyl ester], the kinact/KI came to 570 M⁻¹ s⁻¹.

Turning to `CCOC(=O)/C=C/[C@H](C[C@@H]1CCNC1=O)NC(=O)COc1cccc(Cl)c1` [Compound 61, 4S-[2-(3-chloro-phenoxy)-acetylamino]-5-(2-oxo-pyrrolidin-35-yl)-pent-2-enoic acid ethyl ester], the kinact/KI is 103 M⁻¹ s⁻¹. Turning to `CCOC(=O)/C=C/[C@H](C[C@@H]1CCNC1=O)NC(=O)c1cc2cccc([N+](=O)[O-])c2[nH]1` [Compound 42, 4S-[(7-Nitro-1H-indole-2-carbonyl)-amino]-5-(2-oxo-pyrrolidin-3S-yl)-pent-2-enoic acid ethyl ester], the kinact/KI was 272 M⁻¹ s⁻¹.
